One assay deals with T1, human V2 receptor (Homo sapiens, UniProt P30518).
T1 construct: expressed in transfected cells; host or cells: CHO K1 (constitutively expressing modified aequorin; co-transfected with promiscuous G-alpha-16)
Put plainly: Cellular in vitro assay for determining the vasopressin receptor activity (aequorin luminescence). The class given is cell-based. As to conditions: CHO cell line transfected with the human V2 receptor (and Gα16); agonist [Arg8]-vasopressin; read-out: IC50 hV2. The source says:
(§1) B-1. Cellular In Vitro Assay for Determining the Vasopressin Receptor Activity
(§2) The identification of agonists and antagonists of the V1a and V2 vasopressin receptors from humans and rats and also the quantification of the activity of the substances described here took place using recombinant cell lines. These cells derive originally from a hamster ovary epithelial cell (Chinese Hamster Ovary, CHO K1, ATCC: American Type Culture Collection, Manassas, Va. 20108, USA). The test cell lines constitutively express a modified form of the calcium-sensitive photoprotein aequorin, which, after reconstitution with the cofactor coelenterazine, emits light when there are increases in the free calcium concentration (Rizzuto R., Simpson A. W., Brini M., Pozzan T.; Nature 358 (1992) 325-327). In addition, the cells are stably transfected with the human or rat V1a or V2 receptors. In the case of the Gs-coupling V2 receptors, the cells are stably transfected with a further gene, which codes for the promiscuous Gα16 protein (Amatruda T. T., Steele D. A., Slepak V. Z., Simon M. I., Proc. Nat. Acad. Sci. USA 88 (1991), 5587-5591), either independently or as a fusion gene. The resulting vasopressin receptor test cells react to stimulation of the recombinantly expressed vasopressin receptors by intracellular release of calcium ions, which can be quantified by the resulting aequorin luminescence using a suitable luminometer (Milligan G., Marshall F., Rees S., Trends in Pharmaco. Sci. 17 (1996) 235-237).
(§3) On the day before the assay, the cells are plated out in culture medium (DMEM, 10% FCS, 2 mM glutamine, 10 mM HEPES) in 384-well microtiter plates and kept in a cell incubator (96% humidity, 5% v/v carbon dioxide, 37° C.). On the day of the assay, the culture medium is replaced by a Tyrode solution (140 mM sodium chloride, 5 mM potassium chloride, 1 mM magnesium chloride, 2 mM calcium chloride, 20 mM glucose, 20 mM HEPES), which additionally contains the cofactor coelenterazine (50 μM), and the microtiter plate is then incubated for a further 3-4 hours. The test substances in various concentrations are placed for 10 to 20 minutes in the wells of the microtiter plate before the agonist [Arg8]-vasopressin is added, and the resulting light signal is measured immediately in the luminometer. The IC50 values are calculated using the GraphPad PRISM computer program (Version 3.02).
(§4) The table below lists representative IC50 values for the compounds of the invention on the cell line transfected with the human V1a or V2 receptor: […]

For the next assay, the target named is T2, human V1a receptor (Homo sapiens, UniProt P37288).
T2 construct: expressed in transfected cells; host or cells: CHO K1 (constitutively expressing modified aequorin)
The assay is described as above. The assay is classed as cell-based. As to conditions: CHO cell line transfected with the human V1a receptor; agonist [Arg8]-vasopressin; read-out: IC50 hV1a.
From the text: as §1, §2, §3, §4

The structures appear in SMILES notation. Where a name gives a salt, the structure may show the parent alone.

What is called IC50 is the concentration needed to halve the response being measured.

T1 sequence (P30518 whole entry): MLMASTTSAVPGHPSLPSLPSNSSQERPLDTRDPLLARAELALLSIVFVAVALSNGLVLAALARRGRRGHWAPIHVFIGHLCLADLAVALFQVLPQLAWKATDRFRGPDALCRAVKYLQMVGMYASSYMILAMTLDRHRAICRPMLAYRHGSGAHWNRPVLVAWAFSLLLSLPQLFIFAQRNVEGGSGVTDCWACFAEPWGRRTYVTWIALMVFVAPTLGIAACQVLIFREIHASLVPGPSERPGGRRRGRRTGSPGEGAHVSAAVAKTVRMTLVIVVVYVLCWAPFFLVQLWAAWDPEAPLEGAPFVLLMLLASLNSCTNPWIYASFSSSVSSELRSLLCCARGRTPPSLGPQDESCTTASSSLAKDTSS
T2 sequence (P37288 whole entry): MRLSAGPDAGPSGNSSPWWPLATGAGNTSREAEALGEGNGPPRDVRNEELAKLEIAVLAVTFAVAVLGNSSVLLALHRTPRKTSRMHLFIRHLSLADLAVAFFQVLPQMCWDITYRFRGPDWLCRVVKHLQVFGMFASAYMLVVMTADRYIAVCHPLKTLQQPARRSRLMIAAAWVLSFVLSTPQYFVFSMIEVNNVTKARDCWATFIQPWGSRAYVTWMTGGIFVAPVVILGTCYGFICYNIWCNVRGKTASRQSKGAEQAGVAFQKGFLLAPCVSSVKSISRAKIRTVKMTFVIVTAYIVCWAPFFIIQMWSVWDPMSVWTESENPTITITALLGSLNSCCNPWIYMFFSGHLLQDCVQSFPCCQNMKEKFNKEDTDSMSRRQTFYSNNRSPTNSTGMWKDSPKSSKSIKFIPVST

Take `NCC(NC(=O)Cn1nc(-c2ccc(Cl)cc2)n(C[C@H](O)C(F)(F)F)c1=O)c1cccc(C(F)(F)F)c1` (mixture of isomers) [Example 10, N-{2-Amino-1-[3-(trifluoromethyl)phenyl]ethyl}-2-{3-(4-chlorophenyl)-5-oxo-4-[(2S)-3,3,3-trifluoro-2-hydroxypropyl]-4,5-dihydro-1H-1,2,4-triazol-1-yl}acetamide hydrochloride (diastereomer mixture)]: the IC50 came out at 6.3 nM on human V2 receptor and 10.4 nM on human V1a receptor.

In the case of `CC(=O)NCC(NC(=O)Cn1nc(-c2ccc(Cl)cc2)n(C[C@H](O)C(F)(F)F)c1=O)c1cccc(C(F)(F)F)c1` (mixture of isomers) [Example 20, N-{2-(Acetylamino)-1-[3-(trifluoromethyl)phenyl]ethyl}-2-{3-(4-chlorophenyl)-5-oxo-4-[(2S)-3,3,3-trifluoro-2-hydroxypropyl]-4,5-dihydro-1H-1,2,4-triazol-1-yl}acetamide (diastereomer mixture)], the figures for the IC50 on human V2 receptor and at human V1a receptor were 6.3 nM and 1.5 nM, respectively.

Take `O=C(Cn1nc(-c2ccc(Cl)cc2)n(C[C@H](O)C(F)(F)F)c1=O)NC(c1cccc(C(F)(F)F)c1)C(O)C(F)(F)F` (mixture of isomers) [Example 78, 2-{3-(4-Chlorophenyl)-5-oxo-4-[(2S)-3,3,3-trifluoro-2-hydroxypropyl]-4,5-dihydro-1H-1,2,4-triazol-1-yl}-N-{3,3,3-trifluoro-2-hydroxy-1-[3-(trifluoromethyl)phenyl]propyl}acetamide]: the IC50 at human V2 receptor came out at 30.4 nM; at human V1a receptor it was 21.1 nM.

For `COc1cccc(C(CCO)NC(=O)Cn2nc(-c3ccc(Cl)cc3)n(C3CC3)c2=O)c1` (racemic) [Example 89, 2-[3-(4-Chlorophenyl)-4-cyclopropyl-5-oxo-4,5-dihydro-1H-1,2,4-triazol-1-yl]-N-[3-hydroxy-1-(3-methoxyphenyl)propyl]acetamide], the half-inhibitory concentration (IC50) on human V2 receptor is 290 nM; at human V1a receptor, 2880 nM.

Consider `O=C(Cn1nc(-c2ccc(Cl)cc2)n(C2CC2)c1=O)NC(CO)c1cccc(C(F)(F)F)c1` (racemic) [Example 96, 2-[3-(4-Chlorophenyl)-4-cyclopropyl-5-oxo-4,5-dihydro-1H-1,2,4-triazol-1-yl]-N-{2-hydroxy-1-[3-(trifluoromethyl)phenyl]ethyl}acetamide], for which the IC50 at human V2 receptor was determined as 40.2 nM; on human V1a receptor it was 71.3 nM.

As for `NC(=O)OCC(NC(=O)Cn1nc(-c2ccc(Cl)cc2)n(C[C@H](O)C(F)(F)F)c1=O)c1cccc(C(F)(F)F)c1` (single isomer, unassigned) [Example 48], the IC50 on human V2 receptor came out at 4.4 nM; at human V1a receptor, 5.2 nM.

With `NC(=O)OCC(NC(=O)Cn1nc(-c2ccc(Cl)cc2)n(C[C@H](O)C(F)(F)F)c1=O)c1ccccc1C(F)(F)F` (single isomer, unassigned) [Example 51], the IC50 on human V2 receptor was 8.5 nM; on human V1a receptor, 1 nM.

As for `NC(=O)NCC(NC(=O)Cn1nc(-c2ccc(Cl)cc2)n(C[C@H](O)C(F)(F)F)c1=O)c1cccc(C(F)(F)F)c1` (single isomer, unassigned) [Example 57], the IC50 was 2.2 nM at human V2 receptor and 2.9 nM on human V1a receptor.

`NC(=O)NCC(NC(=O)Cn1nc(-c2ccc(Cl)cc2)n(C[C@H](O)C(F)(F)F)c1=O)c1ccccc1C(F)(F)F` (single isomer, unassigned) [Example 60]: the IC50 was 4.5 nM on human V2 receptor and 0.5 nM at human V1a receptor.

For the compound `NC(=O)NCC(NC(=O)Cn1nc(-c2ccc(Cl)cc2)n(C[C@H](O)C(F)(F)F)c1=O)c1cccc(Cl)c1Cl` (single isomer, unassigned) [Example 62], the IC50 was 1 nM on human V2 receptor and 3.6 nM on human V1a receptor.

As to `NC(=O)OCC(NC(=O)Cn1nc(-c2ccc(Cl)cc2)n(/C=C/C(F)(F)F)c1=O)c1cccc(C(F)(F)F)c1` (single isomer, unassigned) [Example 65, 2-[({3-(4-Chlorophenyl)-5-oxo-4-[(1E)-3,3,3-trifluoroprop-1-en-1-yl]-4,5-dihydro-1H-1,2,4-triazol-1-yl}acetyl)amino]-2-[3-(trifluoromethyl)phenyl]ethyl carbamate], the IC50 on human V2 receptor and at human V1a receptor was 16.8 nM in each case.

With `NC(=O)OCCC(NC(=O)Cn1nc(-c2ccc(Cl)cc2)n(C[C@H](O)C(F)(F)F)c1=O)c1cccc(Cl)c1Cl` (single isomer, unassigned) [Example 73], the concentration for half-maximal inhibition (IC50) on human V2 receptor came out at 1.6 nM; at human V1a receptor, 10.8 nM.

For the compound `Cc1ccccc1C(CCO)NC(=O)Cn1nc(-c2ccc(Cl)cc2)n(C[C@H](O)C(F)(F)F)c1=O` (single isomer, unassigned) [Example 87], the concentration for half-maximal inhibition (IC50) at human V2 receptor was determined as 5.8 nM; on human V1a receptor it was 3.8 nM.

Take `NC(=O)OCC(NC(=O)Cn1nc(-c2ccc(Cl)cc2)n(CCC(F)(F)F)c1=O)c1cccc(C(F)(F)F)c1` (single isomer, unassigned) [Example 112, 2-({[3-(4-Chlorophenyl)-5-oxo-4-(3,3,3-trifluoropropyl)-4,5-dihydro-1H-1,2,4-triazol-1-yl]acetyl}amino)-2-[3-(trifluoromethyl)phenyl]ethyl carbamate]: the results for the IC50 at human V2 receptor and on human V1a receptor were 6 nM and 2.4 nM, respectively.

As for `COC(=O)NCC(NC(=O)Cn1nc(-c2ccc(Cl)cc2)n(CCC(F)(F)F)c1=O)c1cccc(Cl)c1Cl` (single isomer, unassigned) [Example 115, Methyl [2-({[3-(4-chlorophenyl)-5-oxo-4-(3,3,3-trifluoropropyl)-4,5-dihydro-1H-1,2,4-triazol-1-yl]acetyl}amino)-2-(2,3-dichlorophenyl)ethyl]carbamate], the IC50 at human V2 receptor is 7.6 nM; on human V1a receptor, 3.5 nM.

For `NC(=O)NCC(NC(=O)Cn1nc(-c2ccc(Cl)cc2)n(CCC(F)(F)F)c1=O)c1cccc(Cl)c1Cl` (single isomer, unassigned) [Example 121, N-[2-(Carbamoylamino)-1-(2,3-dichlorophenyl)ethyl]-2-[3-(4-chlorophenyl)-5-oxo-4-(3,3,3-trifluoropropyl)-4,5-dihydro-1H-1,2,4-triazol-1-yl]acetamide], the IC50 at human V2 receptor stood at 1.4 nM; on human V1a receptor it was 0.9 nM.

Turning to `CS(=O)(=O)NCC(NC(=O)Cn1nc(-c2ccc(Cl)cc2)n(C[C@H](O)C(F)(F)F)c1=O)c1ccccc1Cl` (single isomer, unassigned) [Example 126], the half-maximal inhibitory concentration (IC50) at human V2 receptor and on human V1a receptor was 1.8 nM each time.

`CS(=O)(=O)CC(NC(=O)Cn1nc(-c2ccc(Cl)cc2)n(C[C@H](O)C(F)(F)F)c1=O)c1ccccc1C(F)(F)F` (single isomer, unassigned) [Example 136]: the half-inhibitory concentration (IC50) on human V2 receptor stood at 24 nM; at human V1a receptor, 3.9 nM.

With `CN(C)S(=O)(=O)CC(NC(=O)Cn1nc(-c2ccc(Cl)cc2)n(C[C@H](O)C(F)(F)F)c1=O)c1cccc(C(F)(F)F)c1` (single isomer, unassigned) [Example 141], the IC50 at human V2 receptor turned out to be 4.8 nM; at human V1a receptor, 36 nM.

Regarding `NC(=O)OCC(NC(=O)Cn1nc(-c2ccc(Cl)cc2)n(CCC(F)(F)F)c1=O)c1ccccc1C(F)(F)F` (single isomer, unassigned) [Example 144, 2-({[3-(4-Chlorophenyl)-5-oxo-4-(3,3,3-trifluoropropyl)-4,5-dihydro-1H-1,2,4-triazol-1-yl]acetyl}amino)-2-[2-(trifluoromethyl)phenyl]ethyl carbamate], the IC50 at human V2 receptor stood at 13.9 nM; at human V1a receptor, 1.4 nM.

As for `O=C(Cn1nc(-c2ccc(Cl)cc2)n(C[C@H](O)C(F)(F)F)c1=O)NC(CN1CCOC1=O)c1cccc(C(F)(F)F)c1` (single isomer, unassigned) [Example 149], the half-inhibitory concentration (IC50) turned out to be 15 nM on human V2 receptor and 2 nM at human V1a receptor.

With `O=C(Cn1nc(-c2ccc(Cl)cc2)n(C[C@H](O)C(F)(F)F)c1=O)NC(CN1CCNC1=O)c1cccc(C(F)(F)F)c1` (single isomer, unassigned) [Example 152], the results for the IC50 on human V2 receptor and at human V1a receptor were 7.1 nM and 2.2 nM, respectively.

Consider `CSCC(NC(=O)Cn1nc(-c2ccc(Cl)cc2)n(C[C@H](O)C(F)(F)F)c1=O)c1ccccc1C(F)(F)F` (single isomer, unassigned) [Example 156], for which the IC50 came to 10 nM at human V2 receptor and 1.9 nM at human V1a receptor.

These data come from US8796324B2, “Substituted 2-acetamido-5-aryl-1,2,4-triazolones and use thereof” (Bayer Intellectual Property GmbH, priority 2009, dated 2014).
